Here are results for one molecule from paper PMC6173696, “Structural properties of a haemophore facilitate targeted elimination of the pathogen Porphyromonas gingivalis” (Nature Communications, 2018).

One data set has as its target T1, IsdH(Y642A) (Staphylococcus aureus, UniProt Q931P4, Y642A).
T1 sequence (Q931P4 41-891 Y642A): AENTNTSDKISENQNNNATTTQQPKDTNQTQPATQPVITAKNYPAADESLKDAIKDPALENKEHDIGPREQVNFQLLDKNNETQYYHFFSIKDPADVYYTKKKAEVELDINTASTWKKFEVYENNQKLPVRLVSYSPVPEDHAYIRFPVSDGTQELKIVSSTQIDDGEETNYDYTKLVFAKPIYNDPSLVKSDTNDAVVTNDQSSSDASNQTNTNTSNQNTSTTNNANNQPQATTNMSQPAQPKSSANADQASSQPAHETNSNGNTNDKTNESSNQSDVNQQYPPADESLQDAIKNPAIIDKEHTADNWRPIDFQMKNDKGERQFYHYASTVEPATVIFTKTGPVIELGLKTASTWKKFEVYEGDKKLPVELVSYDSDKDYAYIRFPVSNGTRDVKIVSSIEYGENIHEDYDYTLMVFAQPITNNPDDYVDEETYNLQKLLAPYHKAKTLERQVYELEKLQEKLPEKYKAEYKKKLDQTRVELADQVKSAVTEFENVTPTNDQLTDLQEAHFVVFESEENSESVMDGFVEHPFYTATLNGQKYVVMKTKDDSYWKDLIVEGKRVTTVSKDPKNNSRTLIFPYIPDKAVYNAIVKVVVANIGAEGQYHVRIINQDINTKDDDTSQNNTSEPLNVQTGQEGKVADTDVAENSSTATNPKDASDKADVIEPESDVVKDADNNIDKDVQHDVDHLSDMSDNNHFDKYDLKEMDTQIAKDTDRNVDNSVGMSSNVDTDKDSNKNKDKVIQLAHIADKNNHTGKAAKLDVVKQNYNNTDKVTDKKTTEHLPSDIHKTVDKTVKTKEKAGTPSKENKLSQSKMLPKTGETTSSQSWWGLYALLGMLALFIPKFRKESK
It counts as physicochemical. The conditions noted are these: haemin bound to IsdH (Y642A). The method, then: Supplementary Figure 16. Acid-alkaline transition in UV-vis spectra of various haem binding proteins. (Top) UV-visible spectra (units of wavelength are nm) used to generate the pH titration curves shown in Figure 2h and in the bottom panel. (Bottom) Acid-alkaline titration of 5 µM haemin in presence of 7 µM IsdH, 5 µM IsdB, 7 µM IsdH(Y642A) and 7 µM p22HBP. All proteins are in holo form. See Fig 2h legend for buffer conditions. Absorbance A600–A650 values are plotted except for IsdH and IsdB, for which A630–A600 is plotted (to avoid negative values). […]

A further data set has as its target T2, HusA Y164A (Porphyromonas gingivalis, UniProt Q7MSY3, Y164A).
T2 sequence (Q7MSY3 24-218 Y164A): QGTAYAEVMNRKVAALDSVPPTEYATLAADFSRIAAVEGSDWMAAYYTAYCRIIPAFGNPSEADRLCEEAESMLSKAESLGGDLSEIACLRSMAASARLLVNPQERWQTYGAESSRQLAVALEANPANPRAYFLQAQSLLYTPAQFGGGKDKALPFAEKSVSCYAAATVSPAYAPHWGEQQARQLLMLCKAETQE
The data set is described as follows: Tryptophan fluorescence quenching assay, HusA mutant Y164A. It counts as binding. The method, then:
The quenching of intrinsic tryptophan fluorescence of HusA upon porphyrin additions was measured using a Carey Eclipse Fluorescence Spectrophotometer (Agilent) set to a photo multiplier effect (PME) of 850. A 5-mm path length quartz cuvette was used and all spectra were acquired at room temperature. Excitation was set to 295 nm and emission was measured from 300 nm to 500 nm using excitation/emission slit widths of 5 nm. Binding assays were performed at a protein concentration of 1 μM HusA in standard buffer at a working volume of 0.5 mL. […] The fluorescence quenching of HusA by PPIX was investigated in a similar manner with the following difference: the fluorescence intensities of ten 1 μM HusA samples were measured each with increasing amounts of PPIX after a 2-h incubation period to allow equilibrium to be reached. See Supplementary Methods for correction for inner filter effect and curve fitting. […]
Correction of inner filter effect and curve fitting in tryptophan fluorescence quenching assays The concentration of NATA was chosen such that the raw fluorescence intensity was similar to the 10 uM concentrations of HusA and mutants used. […] Fluorescence intensity was scaled with respect to the starting florescence and corrected for the inner filter effect. Fluorescence at 335 nm was used to fit binding curves. […]

The target in another data set is T3, HusA W130N (Porphyromonas gingivalis, UniProt Q7MSY3, W130N).
T3 sequence (Q7MSY3 24-218 W130N): T2 sequence (Q7MSY3 24-218 Y164A)
As to the kind of experiment: Tryptophan fluorescence quenching assay, HusA mutant W130N. Type of data set: binding.

The format of data set [1] is physicochemical. The conditions noted are these: aqueous haemin, 5 µM. The method, then: Spectra were recorded in 0.1 M NaCl with 0.1 M of the following buffers: citrate, pH 5.0; BisTris-HCl, pH 5.5; BisTris-HCl, pH 5.75: BisTris-HCl, pH 6.0; sodium phosphate, pH 6.5; sodium phosphate, pH 7.0; sodium phosphate, pH 7.5; Tris-HCl, pH 8.0; sodium borate, pH 9.0; sodium borate/NaOH, pH 9.8; sodium carbonate, pH 10.0 (not all titration points were collected for each protein)

The target in another data set is HusA. The conditions noted are these: previously reported; now considered far weaker; cited from earlier work.

Some results are limits rather than exact numbers.

As usually defined, the Kd is the free concentration of one partner at which half of the binding sites on the other are occupied at equilibrium, for simple one-to-one binding. For the molecule `C=CC1=C(C)c2cc3[nH]c(cc4nc(cc5[nH]c(cc1n2)c(C)c5CCC(=O)O)C(CCC(=O)O)=C4C)c(C)c3C=C.[Fe+3]` [haemin], the “pKa of acid-alkaline transition” value worked out at 5.9 at IsdH(Y642A) and 6.7 in data set [1]. For the same molecule, the “reduction of haemin affinity compared to wild-type” value at HusA Y164A and at HusA W130N was greater than 50% each time. Besides, the dissociation constant Kd on HusA was roughly 2 nM.
